Laboratory results reported in US20060004029A1, “Nitrogen-containing aromatic derivatives” (priority 2003, published 2006).

Legend:
[1] = biological target: T1, VEGFR2 (Homo sapiens, UniProt P35968); test: Inhibition against receptor tyrosine kinase activity (HTRF), VEGFR2; assay type: biochemical; details: His6-VEGFR2 cytoplasmic domain, biotin-poly(GT), HTRF; read-out: VEGFR2 kinase IC50
T1 construct: coding for the cytoplasmic domain, beginning with lysine 791 and including the termination codon; made in house; host or cells: Sf9 insect cells, baculovirus (pFastBacHis)
T1 sequence (P35968 786-1356 limits assumed): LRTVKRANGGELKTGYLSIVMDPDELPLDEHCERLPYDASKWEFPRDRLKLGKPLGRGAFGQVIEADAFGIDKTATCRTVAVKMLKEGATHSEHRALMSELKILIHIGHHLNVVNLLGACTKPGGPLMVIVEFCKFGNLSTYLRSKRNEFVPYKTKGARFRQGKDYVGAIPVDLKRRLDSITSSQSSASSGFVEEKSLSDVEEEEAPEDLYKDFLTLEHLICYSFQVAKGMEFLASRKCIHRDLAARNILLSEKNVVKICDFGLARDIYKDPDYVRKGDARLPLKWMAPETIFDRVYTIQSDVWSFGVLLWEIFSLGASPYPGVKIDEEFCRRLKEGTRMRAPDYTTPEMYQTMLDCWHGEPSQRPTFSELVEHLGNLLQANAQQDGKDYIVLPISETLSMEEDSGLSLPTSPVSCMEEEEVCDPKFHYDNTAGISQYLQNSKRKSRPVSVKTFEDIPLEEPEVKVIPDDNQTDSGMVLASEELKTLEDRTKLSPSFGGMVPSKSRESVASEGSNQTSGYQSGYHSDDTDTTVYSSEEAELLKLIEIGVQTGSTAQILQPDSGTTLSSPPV
Method: This assay is used to determine inhibition of a test substance on tyrosine kinase activity. […] Expression in an appropriate expression system can produce a polypeptide with tyrosine kinase activity. […] The recombinant construct was transfected into insect cells (Spondoptea frugiperda9 (Sf9)) to prepare a recombinant Baculovirus.
For expression of the VEGFR2 tyrosine kinase, Sf9 cells were infected with the VEGFR2 recombinant virus and collected after 48 hours. The collected cells were rinsed with ice-cooled phosphate buffered saline (PBS) and then resuspended using 20 ml of ice-cooled Lysis Buffer (50 mM Tris-HCl (pH 8.5), 5 mM 2-mercaptoethanol, 100 mM KCl, 1 mM phenylmethylsulfonyl fluoride, 1% (v/v) NP-40) per 1.5×10^8 cells. The suspension was centrifuged at 12,000 rpm for 30 minutes at 4° C. and the supernatant was obtained. The supernatant was added to a Ni-NTA agarose column (3 ml, purchased from Qiagen) equilibrated with Buffer A {20 mM Tris-HCl (pH 8.5), 5 mM 2-mercaptoethanol, 500 mM KCl, 20 mM imidazole, 10% (v/v) glycerol}. The column was washed with 30 ml of Buffer A, and then with 6 ml of Buffer B {20 mM Tris-HCl (pH 8.5), 5 mM 2-mercaptoethanol, 1M KCl, 10% (v/v) glycerol}, and finally with 6 ml of Buffer A. After washing, it was eluted with 6 ml of Buffer C {20 mM Tris-HCl (pH 8.5), 5 mM 2-mercaptoethanol, 100 mM KCl, 100 mM imidazole, 10% (v/v) glycerol}. The eluate was placed on a dialysis membrane (purchased from Spectrum Laboratories) and dialyzed with a dialysis buffer {20 mM Tris-HCl (pH 7.5), 10% (v/v) glycerol, 1 mM dithiothreitol, 0.1 mM Na3VO4, 0.1 mM EGTA}. […] Using the same method for the cytoplasmic domains of FGFR1, PDGFRβ and HGFR yielded respective recombinant proteins fused with 6 histidine residues at the N-terminal (His6-FGFR1, His6-PDGFRβ or His6-HGFR).
The tyrosine kinase reaction was conducted as follows. […] Next, 10 μl of 4 μM ATP (diluted with distilled water) was added prior to incubation at 30° C. for 10 minutes, and then 10 μl of 500 mM EDTA (pH 8.0) was added.
The tyrosine phosphorylation rate for the biotin-poly(GT) was expressed as the delta F % value as described in the HTRF Standard Experiment Methods text by CIS Diagnostics Co. The delta F % value in the presence of the test substance was determined as a ratio (%) with the delta F % value with addition of His6-VEGFR2 in the absence of the test substance defined as 100% and the delta F % value in the absence of both the test substance and His6-VEGFR2 defined as 0%.

[2] = biological target: T2, FGFR1 (Homo sapiens, UniProt P11362); test: Inhibition against receptor tyrosine kinase activity (HTRF), FGFR1; assay type: biochemical; details: His6-FGFR1 cytoplasmic domain, biotin-poly(GT), HTRF; read-out: FGFR1 kinase IC50
T2 construct: made in house; host or cells: Sf9 insect cells, baculovirus (pFastBacHis), by the same method as VEGFR2
T2 sequence (P11362 398-822 limits assumed): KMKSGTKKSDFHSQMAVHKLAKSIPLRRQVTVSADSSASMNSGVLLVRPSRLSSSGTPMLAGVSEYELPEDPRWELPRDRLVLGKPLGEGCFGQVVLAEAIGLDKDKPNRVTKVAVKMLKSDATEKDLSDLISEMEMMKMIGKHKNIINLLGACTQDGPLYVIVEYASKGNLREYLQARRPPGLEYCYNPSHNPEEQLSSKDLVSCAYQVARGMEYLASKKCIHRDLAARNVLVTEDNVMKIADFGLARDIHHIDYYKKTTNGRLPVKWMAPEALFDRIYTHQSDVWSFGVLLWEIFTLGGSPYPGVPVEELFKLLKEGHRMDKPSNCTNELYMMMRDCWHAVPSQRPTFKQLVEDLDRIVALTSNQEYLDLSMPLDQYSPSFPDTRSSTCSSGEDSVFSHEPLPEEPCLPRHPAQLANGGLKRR
Excerpt: This assay is used to determine inhibition of a test substance on tyrosine kinase activity. DNA coding for the cytoplasmic domain of VEGFR2 is obtained by total cDNA synthesis (Edwards M, International Biotechnology Lab 5(3), 19-25, 1987) or by cloning. Expression in an appropriate expression system can produce a polypeptide with tyrosine kinase activity. […] For VEGFR2 (GenBank Accession No. L04947), the 1.7 kb DNA fragment described by Terman et al. (Oncogene, 6(9), 1677-1683, 1991), coding for the cytoplasmic domain, beginning with lysine 791 and including the termination codon, was isolated from a human placental cDNA library (purchased from Clontech Laboratories, Inc.) and cloned in a Baculovirus expression vector (pFastBacHis, purchased from GIBCO BRL). The recombinant construct was transfected into insect cells (Spondoptea frugiperda9 (Sf9)) to prepare a recombinant Baculovirus. (Instructions for preparation and use of recombinant Baculovirus may be found in standard texts, such as “Bac-To-Bac Baculovirus Expression System” (GIBCO BRL).) The cytoplasmic fragment starting from lysine 398 (FGFR1, GenBank Accession No. X52833), the cytoplasmic fragment starting from lysine 558 (PDGFRβ, GenBank Accession No. M21616) or the cytoplasmic fragment starting from lysine 974 (HGFR, GenBank Accession No. J02958) may be cloned and expressed by the same method for use in assays for other tyrosine kinases. EGFR was purchased from Sigma Co. (Product No. E-2645).
For expression of the VEGFR2 tyrosine kinase, Sf9 cells were infected with the VEGFR2 recombinant virus and collected after 48 hours. The collected cells were rinsed with ice-cooled phosphate buffered saline (PBS) and then resuspended using 20 ml of ice-cooled Lysis Buffer (50 mM Tris-HCl (pH 8.5), 5 mM 2-mercaptoethanol, 100 mM KCl, 1 mM phenylmethylsulfonyl fluoride, 1% (v/v) NP-40) per 1.5×10^8 cells. The suspension was centrifuged at 12,000 rpm for 30 minutes at 4° C. and the supernatant was obtained. The supernatant was added to a Ni-NTA agarose column (3 ml, purchased from Qiagen) equilibrated with Buffer A {20 mM Tris-HCl (pH 8.5), 5 mM 2-mercaptoethanol, 500 mM KCl, 20 mM imidazole, 10% (v/v) glycerol}. The column was washed with 30 ml of Buffer A, and then with 6 ml of Buffer B {20 mM Tris-HCl (pH 8.5), 5 mM 2-mercaptoethanol, 1M KCl, 10% (v/v) glycerol}, and finally with 6 ml of Buffer A. After washing, it was eluted with 6 ml of Buffer C {20 mM Tris-HCl (pH 8.5), 5 mM 2-mercaptoethanol, 100 mM KCl, 100 mM imidazole, 10% (v/v) glycerol}. The eluate was placed on a dialysis membrane (purchased from Spectrum Laboratories) and dialyzed with a dialysis buffer {20 mM Tris-HCl (pH 7.5), 10% (v/v) glycerol, 1 mM dithiothreitol, 0.1 mM Na3VO4, 0.1 mM EGTA}. After dialysis, it was supplied for SDS-electrophoresis, and the recombinant protein (His6-VEGFR2, cytoplasmic domain of VEGFR2 fused with 6 histidine residues at the N-terminus) detected at a molecular weight of approximately 100 kDa with Coumassie Brilliant Blue staining was assayed using BSA (bovine serum albumin, purchased from Sigma Co.) as the standard substance, and stored at −80° C. until use. Using the same method for the cytoplasmic domains of FGFR1, PDGFRβ and HGFR yielded respective recombinant proteins fused with 6 histidine residues at the N-terminal (His6-FGFR1, His6-PDGFRβ or His6-HGFR).
The tyrosine kinase reaction was conducted as follows. In the case of VEGFR2, for example, 10 μl of a kinase reaction solution {200 mM Hepes (pH 7.4), 80 mM MgCl2, 16 mM MnCl2, 2 mM Na3VO4}, 250 ng of biotin-bound poly(Glu4:Tyr1) (biotin-poly(GT), purchased from CIS Diagnostics Co.) (6 μl of a 15-fold dilution with distilled water), 15 ng of His6-VEGFR2 (10 μl of a 240-fold dilution with 0.4% BSA solution) and the test substance dissolved in dimethyl sulfoxide (4 μl of a 100-fold dilution with 0.1% BSA solution) were added into each well of a 96-well round-bottom plate (NUNC Co., Product No. 163320), to a total of 30 μl. […]

IC50 [1] [nM]	IC50 [2] [nM]	Compound
9.8	25	CCNC(=O)n1ccc2cc(Oc3ccnc(NC(=O)N4CCC(O)CC4)c3)ccc21 [Example 79, N1-Ethyl-5-(2-((4-hydroxypiperidin-1-yl)carbonyl)amino-4-pyridyl)oxy-1H-1-indolecarboxamide]
12	38	CCNC(=O)n1ccc2cc(Oc3ccnc(NC(=O)N4CCCC4)c3)ccc21 [Example 81, N1-Ethyl-5-((2-((pyrrolidin-1-ylcarbonyl)amino)-4-pyridyl)oxy)-1H-1-indolecarboxamide]
15	24	CCNC(=O)n1ccc2cc(Oc3ccnc(NC(=O)N4CCOCC4)c3)ccc21 [Example 82, N4-(4-((1-(Ethylamino)carbonyl-1H-5-indolyl)oxy)-2-pyridyl)-4-morpholinecarboxamide]
14	24	O=C(Nc1cc(Oc2ccc3c(ccn3C(=O)NC3CC3)c2)ccn1)N1CCCC1 [Example 88, N1-Cyclopropyl-5-(2-((pyrrolidin-1-ylcarbonyl)amino)-4-pyridyl)oxy-1H-1-indolecarboxamide]
3.9	19	CNC(=O)n1cc(Cl)c2cc(Oc3ccnc(NC(=O)N4CCC(O)CC4)c3)ccc21 [Example 104, N1-Methyl-3-chloro-5-(2-((4-hydroxypiperidino)carbonyl)amino-4-pyridyl)oxy-1H-1-indolecarboxamide]
14	87	CNC(=O)Nc1cc(Oc2ccc3c(ccn3C(=O)NC)c2)ccn1 [Example 116, N1-Methyl-5-(2-((methylamino)carbonyl)amino-4-pyridyl)oxy-1H-1-indolecarboxamide]
21	120	CCN(CC)C(=O)Nc1cc(Oc2ccc3c(ccn3C(=O)NC)c2)ccn1 [Example 119, N1-Methyl-5-(2-((diethylamino)carbonyl)amino-4-pyridyl)oxy-1H-1-indolecarboxamide]
6.3	190	C#CCNC(=O)n1ccc2cc(Oc3ccnc(NC(=O)N4CCCC4)c3)ccc21 [Example 139, N1-(2-Propynyl)-5-(2-((pyrrolidin-1-yl)carbonyl)amino-4-pyridyl)oxy-1H-1-indolecarboxamide]
4.1	3.5	CNC(=O)n1ccc2cc(Oc3ccnc(NC(=O)N4CCC4)c3)ccc21 [Example 206, N1-Methyl-5-(2-(azetidin-1-ylcarbonyl)amino-4-pyridyl)oxy-1H-1-indolecarboxamide]
4.6	12	CCNC(=O)n1ccc2cc(Oc3ccnc(NC(=O)N4CCC4)c3)ccc21 [Example 207, N1-Ethyl-5-(2-(azetidin-1-ylcarbonyl)amino-4-pyridyl)oxy-1H-1-indolecarboxamide]
7.7	6.8	O=C(Nc1cc(Oc2ccc3c(ccn3C(=O)NC3CC3)c2)ccn1)N1CCC1 [Example 208, N1-Cyclopropyl-5-(2-(azetidin-1-ylcarbonyl)amino-4-pyridyl)oxy-1H-1-indolecarboxamide]
17	29	CNC(=O)n1ccc2cc(Oc3ccnc(NC(=O)N4CCC(N5CCOCC5)CC4)c3)ccc21 [Example 209, N1-Methyl-5-(2-(((4-(morpholin-4-yl)piperidin-1-yl)carbonyl)amino)pyridin-4-yloxy)-1H-1-indolecarboxamide]
8.1	40	CNC(=O)n1ccc2cc(Oc3ccnc(NC(=O)N4CCC(N5CCC5)CC4)c3)ccc21 [Example 210, N1-Methyl-5-(2-(((4-(azetidin-1-yl)piperidin-1-yl)carbonyl)amino)pyridin-4-yloxy)-1H-1-indolecarboxamide]
45	36	CCN(CC)C1CCN(C(=O)Nc2cc(Oc3ccc4c(ccn4C(=O)NC)c3)ccn2)CC1 [Example 211, N1-Methyl-5-(2-(((4-(diethylamino)piperidin-1-yl)carbonyl)amino)pyridin-4-yloxy)-1H-1-indolecarboxamide]
8.6	19	CNC(=O)n1ccc2cc(Oc3ccnc(NC(=O)N4CCC(N5CCC(O)CC5)CC4)c3)ccc21 [Example 212, N1-Methyl-5-(2-(((4-(4-hydroxypiperidin-1-yl)piperidin-1-yl)carbonyl)amino)pyridin-4-yloxy)-1H-1-indolecarboxamide]
10	330	CCCNC(=O)n1ccc2cc(Oc3ccnc(NC(=O)N4CCCC4)c3)ccc21 [Example 213, N1-Propyl-5-(2-(pyrrolidin-1-ylcarbonyl)amino-4-pyridyl)oxy-1H-1-indolecarboxamide]
4.5	4.1	N1-Methyl-5-(2-((4-(2-hydroxy-2-methylpropionyl)piperazin-1-yl)carbonyl)amino-4-pyridyl)oxy-1H-indolecarboxamide [Example 28]
